Measurements as given in patent US8815935B2, “Inhibitors of protein prenyltransferases” (The Regents of the University of California, priority 2008, dated 2014).
Read-outs that look alike come from different tables or passages of the source.

What was measured:
GGTase-I = target: T1, GGTase-I (Rattus norvegicus, UniProt P53610+Q04631); test: In vitro GGTase-I enzyme assay (IC50, kinetics); assay type: biochemical
T1 construct: purchased JENA BIOSCIENCE
Procedure: The GGTase-I assay was carried out using RhoA as a substrate protein, GGTase-I (JENA Bioscience) and [3H]geranylgeranyl pyrophosphate. Incubation was for 30 min at 37° C. GGTase-II (or RabGGTase) assay was carried out using YPTI as a substrate protein, GGTase-II (Calbiochem, San Diego, Calif.) plus REP1 (Calbiochem) and [3H]geranylgeranyl pyrophosphate. Incubation was for 30 min at 37° C. FIGS. 20D-20F show the three dimensional structure of GGTase I (D), FTsse (E) and GGTase II (F) which can be obtained from X-ray diffraction studies of protein crystals.
GGTase-I and FTase activities were determined by following the incorporation of radiolabeled isoprenoid [^3H]-geranylgeranyl or [^3H]-farnesyl into substrate proteins. FTase or GGTase-I (50 nM) were used to initiate reactions containing 0.4 μM of [^3H]-FPP or 0.5 μM of [^3H]-GGPP and 2 μM of MBP-tagged substrates (K-Ras4B for FTase; RhoA for GGTase-I) in 20 μl of buffer {50 mM Tris-HCl (pH 7.5), 10 mM MgCl2, […] and 5 mM DTT}. Inhibitors were added at the indicated concentrations. The final DMSO concentration was 2.5% for all samples.
Reactions were carried out for 10 min at 30° C. The reaction mixture was spotted onto a filter paper, treated with 10% trichloroacetic acid (TCA) followed by ethanol and acetone washing. The filter was counted using a scintillation counter. Kinetic assays in which the GGPP concentration was varied employed fixed concentrations of GGTase-I and RhoA, and reactions were carried out for 5 min. Similarly, fixed concentrations of GGTase-I and GGPP were used when the amount of RhoA was varied.

Jurkat cells = test: Jurkat cell growth inhibition; assay type: cell-based, human
Procedure: In Table 4 in cell GI50 values for the growth inhibition of Jurkat cells are reported. The GI50 value is the concentration of a test compound needed to produce 50% growth inhibition in the cell type listed. In Table 4 the isolated yield of each synthetic step for the synthesis of corresponding compounds are also reported.
Panc-1 cells (Pancreatic cancer cell line) and Jurkat cells (T-cell leukemia) were treated with 12.5 μM of P5-H6 or 12.5 μM of mP5-H6a for 72 hours. The cell number was counted as described in Example 5.
Cell viability was determined by Cell Counting Kit-8 (CCK-8, Dojindo, Kumamoto, Japan) as described previously (31). Cell viability was calculated relative to the DMSO control. Cell cycle profile was analyzed by flow cytometry as described previously (32).

[1] = Tables 3, 5, 7, read-out: In vitro (enzyme assay) IC50, GGTase I
[2] = Homo sapiens, Jurkat, Tables 4, 6, 7, read-out: Jurkat cell GI50
[3] = Tables 8-15, no unit printed there (Table 7 head: μM unless otherwise specified), read-out: In vitro (GGTase I IC50)
[4] = Tables 5, 14, read-out: In vitro (enzyme assay) IC50, GGTase I
[5] = Homo sapiens, Jurkat, Tables 8-15, no unit printed there, read-out: Jurkat GI50
[6] = Tables 4, 6, 7, read-out: Jurkat cell GI50

Row | Compound | IC50 (GGTase-I; [1]) | IC50 (GGTase-I; [3]) | other results
1 | CCOC(=O)C1=C[C@@H](C(C)(C)C)N(S(=O)(=O)c2ccccc2C)[C@H]1c1ccc(Cl)cc1 | > 50 µM |  | GI50 (Jurkat cells; [2]): 18.5 µM
2 | Cc1ccccc1S(=O)(=O)N1[C@@H](c2ccc(Cl)c(Cl)c2)C(C(=O)O)=C[C@H]1C(C)(C)C |  | 0.363 µM | 
3 | Cc1ccccc1S(=O)(=O)N1[C@@H](c2ccc(Cl)cc2)C(C(=O)N[C@@H](Cc2ccccc2)C(N)=O)=C[C@H]1C(C)(C)C [P61-A06] |  |  | GI50 (Jurkat cells; [2]): 4.89 µM
4 | NC(=O)[C@H](Cc1ccccc1)NC(=O)C1=CC[C@@H](c2cccc(Br)c2)N(S(=O)(=O)c2ccc(Cl)cc2)C1c1cccc(Cl)c1 (stereo partly drawn) [P61-F11] |  |  | IC50 (GGTase-I; [4]): 0.3 µM
5 | CC(C)C[C@H](NC(=O)C1=CC[C@@H](c2cccc(Cl)c2)N(S(=O)(=O)c2ccc(Br)cc2)[C@H]1c1cccc(Cl)c1)C(N)=O [drawing 209] |  | > 20 µM | 
6 | Cc1ccccc1S(=O)(=O)N1[C@@H](c2ccc(Cl)cc2)C(C(=O)O)=C[C@H]1C(C)(C)C [drawing 136] | 0.5 µM |  | GI50 (Jurkat cells; [2]): 20 µM
7 | CC(C)CC(NC(=O)C1=CCC(c2cccc(Br)c2)N(S(=O)(=O)c2ccc(Cl)cc2)C1c1cccc(Cl)c1)C(=O)O (stereo not drawn) [P61-G08] |  |  | IC50 (GGTase-I; [4]): 0.06 µM
8 | Cc1ccccc1S(=O)(=O)N1[C@@H](c2ccc(Cl)cc2)C(C(=O)N[C@@H](Cc2ccccc2)C(=O)O)=C[C@H]1C(C)(C)C [P61-A08] | 1.4 µM |  | GI50 (Jurkat cells; [2]): 13 µM
9 | CC(C)(C)[C@@H]1C=C(C(=O)O)[C@H](c2ccc(Br)cc2)N1S(=O)(=O)c1ccccc1Cl |  | 0.349 µM | 
10 | Cc1ccccc1S(=O)(=O)N1C(c2cccc(Cl)c2)C(C(=O)N[C@@H](CC(C)C)C(N)=O)=CC[C@H]1c1ccc(Cl)cc1 (stereo partly drawn) [P61-C05] | > 50 µM |  | GI50 (Jurkat cells; [2]): 6.1 µM
11 | Cc1ccccc1S(=O)(=O)N1C(c2cccc(Cl)c2)C(C(=O)O)=CC[C@H]1c1ccc(Cl)cc1 (stereo partly drawn) [drawing 183] |  | 0.31 µM | GI50 (Jurkat cells; [5]): 20 µM
12 | CC(C)CC(NC(=O)C1=CCC(c2cccc(Cl)c2)N(S(=O)(=O)c2ccc(Cl)cc2)C1c1cccc(Cl)c1)C(=O)O (stereo not drawn) [P61-H08] |  |  | IC50 (GGTase-I; [4]): 0.18 µM
13 | NC(=O)[C@H](Cc1ccccc1)NC(=O)C1=CC[C@@H](c2cccc(Br)c2)N(S(=O)(=O)c2ccc(Cl)cc2)C1c1cccc(Cl)c1 (stereo partly drawn) [P61-G02] |  |  | IC50 (GGTase-I; [4]): 0.45 µM
14 | CC(C)CC(NC(=O)C1=CCC(c2cccc(Br)c2)N(S(=O)(=O)c2ccc(F)cc2)C1c1cccc(Cl)c1)C(=O)O (stereo not drawn) [P61-H06] |  |  | IC50 (GGTase-I; [4]): 0.21 µM; GI50 (Jurkat cells; Homo sapiens, Jurkat, Table 6, read-out: Jurkat cell GI50): 0.21 µM
15 | CC(C)(C)[C@@H]1C=C(C(=O)O)[C@H](c2ccc(Cl)c(Cl)c2)N1S(=O)(=O)c1ccccc1Br |  | 0.348 µM | 
16 | Cc1ccccc1S(=O)(=O)N1[C@@H](c2ccc(Cl)cc2)C(C(=O)N[C@@H](CC(C)C)C(N)=O)=C[C@H]1C(C)(C)C [P61-B02] | 8.1 µM |  | GI50 (Jurkat cells; [2]): 6.58 µM
17 | COC(=O)[C@H](CC(C)C)NC(=O)C1=CC[C@@H](c2ccc(Cl)cc2)N(S(=O)(=O)c2ccccc2C)C1c1cccc(Cl)c1 (stereo partly drawn) |  | > 50 µM | GI50 (Jurkat cells; [5]): 6.1 µM
18 | COC(=O)[C@H](Cc1ccccc1)NC(=O)C1=C[C@@H](C(C)(C)C)N(S(=O)(=O)c2ccccc2C)[C@H]1c1ccc(Cl)cc1 [P61-A05] |  |  | GI50 (Jurkat cells; [6]): 10.5 µM
19 | COC(=O)C(CC(C)C)NC(=O)C1=CCC(c2cccc(Cl)c2)N(S(=O)(=O)c2ccc(Br)cc2)C1c1cccc(Br)c1 (stereo not drawn) [P67-A04] | > 20 µM |  | GI50 (Jurkat cells; [2]): 8 µM
20 | O=C(NC(Cc1ccccc1)C(=O)O)C1=CCC(c2cccc(Br)c2)N(S(=O)(=O)c2ccc(Cl)cc2)C1c1cccc(Cl)c1 (stereo not drawn) [P61-G07] |  |  | IC50 (GGTase-I; [4]): 0.07 µM
21 | Cc1ccccc1S(=O)(=O)N1[C@@H](c2ccc(Cl)cc2)C(C(=O)O)=C[C@H]1C(C)(C)C [drawing 143] |  | 0.5 µM | GI50 (Jurkat cells; [5]): 20 µM
22 | Cc1ccccc1S(=O)(=O)N1[C@@H](c2cccc(Cl)c2)C(C(=O)N[C@@H](CC(C)C)C(N)=O)=CC[C@H]1c1ccc(Cl)cc1 |  | > 50 µM | 

Row | Compound | IC50 (GGTase-I; [1]) | IC50 (GGTase-I; [3]) | other results
23 | O=C(NC(Cc1ccccc1)C(=O)O)C1=CCC(c2cccc(Cl)c2)N(S(=O)(=O)c2ccc(Cl)cc2)C1c1cccc(Cl)c1 (stereo not drawn) [P61-H09] |  |  | IC50 (GGTase-I; [4]): 0.021 µM
24 | CC(C)CC(NC(=O)C1=CCC(c2cccc(Cl)c2)N(S(=O)(=O)c2ccc(Br)cc2)C1c1cccc(Cl)c1)C(=O)O (stereo not drawn) [P61-E11] |  |  | IC50 (GGTase-I; [4]): 0.5 µM
25 | NC(=O)[C@H](Cc1ccccc1)NC(=O)C1=CC[C@@H](c2cccc(Cl)c2)N(S(=O)(=O)c2ccc(Br)cc2)C1c1cccc(Br)c1 (stereo partly drawn) [P61-E09] | > 20 µM | > 20 µM | 
26 | Cc1ccccc1S(=O)(=O)N1[C@@H](c2ccc(Cl)cc2)C(C(=O)O)=C[C@H]1C(C)CC(C)(C)C (stereo partly drawn) |  | 3.4 µM | 
27 | O=C(N[C@@H](Cc1ccccc1)C(=O)O)C1=CC[C@@H](c2cccc(Br)c2)N(S(=O)(=O)c2ccc(F)cc2)[C@H]1c1cccc(Cl)c1 [P61-H07] |  |  | IC50 (GGTase-I; [4]): 0.011 µM
28 | CC(C)(C)[C@@H]1C=C(C(=O)N[C@@H](Cc2ccccc2)C(N)=O)[C@H](c2ccc(Cl)c(Cl)c2)N1S(=O)(=O)c1ccccc1Br [P61-E03] | > 20 µM |  | 
29 | CC(C)C[C@H](NC(=O)C1=CC[C@@H](c2cccc(Br)c2)N(S(=O)(=O)c2ccc(Cl)cc2)[C@H]1c1cccc(Cl)c1)C(N)=O |  | 39.1 µM | 
30 | COC(=O)C(CC(C)C)NC(=O)C1=CCC(c2cccc(Cl)c2)N(S(=O)(=O)c2ccc(Br)cc2)C1c1cccc(Cl)c1 (stereo not drawn) [P67-A09] | > 20 µM |  | GI50 (Jurkat cells; [2]): 3.81 µM
31 | COC(=O)C(CC(C)C)NC(=O)C1=CCC(c2cccc(Cl)c2)N(S(=O)(=O)c2ccc(Cl)cc2)C1c1cccc(Cl)c1 (stereo not drawn) [P67-A05] | > 20 µM |  | 
32 | COC(=O)[C@H](Cc1ccccc1)NC(=O)CCOCC1=C[C@@H](C(C)(C)C)N(S(=O)(=O)c2ccccc2C)[C@H]1c1ccc(Cl)cc1 |  | > 20 µM | GI50 (Jurkat cells; [5]): 5.1 µM
33 | Cc1ccccc1S(=O)(=O)N1C(c2cccc(Cl)c2)C(C(N)=O)=CC[C@H]1c1ccc(Cl)cc1 (stereo partly drawn) |  | > 20 µM | GI50 (Jurkat cells; [5]): 5.36 µM
34 | Cc1ccccc1S(=O)(=O)N1C(c2cccc(Cl)c2)C(C(=O)O)=CC[C@H]1c1ccc(Cl)cc1 (stereo partly drawn) [drawing 189] |  | 0.31 µM | 
35 | O=C(NC(Cc1ccccc1)C(=O)O)C1=CCC(c2cccc(Cl)c2)N(S(=O)(=O)c2ccc(Br)cc2)C1c1cccc(Cl)c1 (stereo not drawn) [P61-G05] |  |  | IC50 (GGTase-I; [4]): 0.15 µM
36 | CONC(=O)C1=C[C@@H](C(C)(C)C)N(S(=O)(=O)c2ccccc2C)[C@H]1c1ccc(Cl)cc1 | 3.8 µM |  | GI50 (Jurkat cells; [2]): 12.6 µM
37 | COC(=O)[C@H](CC(C)C)NC(=O)C1=CC[C@@H](c2ccc(Cl)cc2)N(S(=O)(=O)c2ccccc2C)[C@H]1c1cccc(Cl)c1 [P61-E07] | > 20 µM |  | GI50 (Jurkat cells; [2]): 3.53 µM
38 | COC(=O)C(CC(C)C)NC(=O)C1=CCC(c2cccc(Br)c2)N(S(=O)(=O)c2ccc(F)cc2)C1c1cccc(Cl)c1 (stereo not drawn) [P67-H11] | > 20 µM |  | 
39 | Cc1ccccc1S(=O)(=O)N1[C@@H](c2ccc(Cl)cc2)C(C(=O)N[C@@H](Cc2ccccc2)C(N)=O)=C[C@H]1C(C)(C)C [P61-B07] |  |  | GI50 (Jurkat cells; [6]): 6.1 µM
40 | CC(C)C[C@H](NC(=O)C1=CC[C@@H](c2cccc(Cl)c2)N(S(=O)(=O)c2ccc(Br)cc2)[C@H]1c1cccc(Cl)c1)C(N)=O [P61-E08] | > 20 µM |  | 
41 | COC(=O)C(CC(C)C)NC(=O)C1=CCC(c2cccc(Br)c2)N(S(=O)(=O)c2ccc(Cl)cc2)C1c1cccc(Cl)c1 (stereo not drawn) [P67-A07] | > 20 µM |  | 
42 | CC(C)C[C@H](NC(=O)C1=CC[C@@H](c2cccc(Br)c2)N(S(=O)(=O)c2ccc(Cl)cc2)C1c1cccc(Cl)c1)C(N)=O (stereo partly drawn) [P61-C06] | 39.1 µM |  | GI50 (Jurkat cells; [2]): 3.15 µM
43 | CC(C)(C)[C@@H]1C=C(C(=O)N[C@@H](Cc2ccccc2)C(N)=O)[C@H](c2ccc(Cl)c(Cl)c2)N1S(=O)(=O)c1ccccc1Br [drawing 167] |  | > 20 µM | 
